Assay results: US8475823B2, “Baclofen formulation in a polyorthoester carrier” (Medtronic, Inc., priority 2008, dated 2013)

How the values were obtained:
[1] = tested on: normal bladder activity (frequency of reflex bladder contractions); test: Epidural infusion of baclofen in a rat model of bladder pain, intravesical saline infusion (normal bladder activity); assay type: in vivo; conditions: female rat, epidural infusion 10 μg/day
Method: (§1) FIG. 1 is a graphic representation of epidural infusion of baclofen in rats treated with an intravesical infusion of saline. Baseline bladder activity was measured before epidural drug treatment as described in Example 4. The columns and error bars represent the mean and SEM values of 10 rats per group. Asterisks indicate statistically significant dose effects compared to baseline as determined by post-hoc Dunnett Multiple Comparison Test.
(§2) An animal model that has been used frequently to study pelvic pain conditions is a rat model of bladder pain. In this model, a female rat was lightly anesthetized with isoflurane and a transurethral catheter was placed into the bladder. The catheter was connected to a pressure transducer so that the pressure within the bladder could be continuously monitored and recorded over time. Fluid was continuously infused into the bladder using a syringe pump at a rate of 0.1 mL/min to cause the bladder to contract repeatedly each time it became full. This is referred to as a volume-evoked micturition reflex or contraction. A repeated series of bladder contractions (pressure spikes) over time was collected using this method. To mimic normal bladder activity, 0.9% saline was infused into the bladder; to mimic painful bladder activity, a dilute solution of acetic acid (0.5%) was infused into the bladder. […]

[2] = tested on: acetic acid induced bladder hypermotility (frequency of bladder contraction reflexes); test: Epidural infusion of baclofen in a rat model of bladder pain, intravesical acetic acid infusion (painful bladder activity); assay type: in vivo; conditions: female rat, epidural infusion 10 μg/day
Method: as §1, with “FIG. 2” for “FIG. 1”, “of acetic acid as described in Example 4.” for “of saline.”, “drug treatment.” for “drug treatment as described in Example 4.”
as §2, with “contraction.” for “contraction. A repeated series of bladder contractions (pressure spikes) over time was collected using this method. To mimic normal bladder activity, 0.9% saline was infused into the bladder; to mimic painful bladder activity, a dilute solution of acetic acid (0.5%) was infused into the bladder.”
In order to evaluate the effects of epidurally administered analgesics on normal and painful bladder activity (frequency of reflex bladder contractions), test drugs were continuously administered via an epidural catheter with the tip placed in the mid-lumbar epidural space. […] In the experiments depicted in FIGS. 1 and 2, the baseline bladder activity was measured before implanting the epidural infusion system, the infusion system was implanted on day 0 and cystometrograms were recorded on three consecutive days during which baclofen (10 μg/day) was infused into the lumbar epidural space.
Baclofen at 10 μg/day reduced acetic acid induced bladder hypermotility by approximately 3 fold on day 3. The frequency of bladder contraction observed during acetic acid infusion and epidural baclofen administration was similar to the baseline bladder activity measured during saline infusion (0.195±0.047 day 3 acetic acid and epidural baclofen vs 0.193±0.035 baseline saline).

## NCC(CC(=O)O)c1ccc(Cl)cc1 (centres unmarked) [baclofen, 4-amino-3-(4-chlorophenyl)butanoic acid]
[1]; days 1 and 2, vs baseline
  effects on normal bladder activity measured during saline infusion: minimal effects
[1]; saline infusion, day three
  contraction rate relative to the baseline reflex contraction rate: statistically significant reductions
[2]; 0.5% acetic acid, all three days, vs baseline
  frequency of bladder contraction reflexes during acetic acid infusion: significantly reduced
[2]; day 3
  reduction of acetic acid induced bladder hypermotility: approximately 3 fold
[2]; day 3, mean ± SEM, 10 rats per group
  frequency of bladder contraction during acetic acid infusion and epidural baclofen administration: 0.195±0.047 reflexes per min
